Data reported in patent US20170184612A1, “USE OF LEUKOCYTES AND NOVEL BIOMARKERS IN THE DIAGNOSIS, CONFIRMATION, AND TREATMENT OF A NEUROLOGICAL DISORDER” (The Trustees of Columbia University in the City of New York, priority 2014, published 2017).

Legend:
[1] = tested on: peripheral blood mononuclear cells (PBMC), T cells; test: ELISpot assay, IL-5 release (SFC) after stimulation with a-synuclein epitope pools; format: cell-based, human
Description: (§1) Blood from age matched controls and PD patients were obtained and mononuclear cells were isolated by gradient centrifugation.
(§2) Release of the cytokines gamma-interferon, which measures activation of CD4+ and/or CD8+ T cells, and the interleukin, IL-5, which measures activation of CD4+ T cells was measured by ELISpot assay. […] After 22 hours of stimulation at 37 C, the cells were removed and release of cytokines was measured by colorimetric detection of spot-forming cells (SFC). Confirmed release of cytokine is determined by the presence of a minimum of 20 SFC per million cells.
(§3) The binding algorithms in SubAim 1 predict how well the peptides would bind to MHC if present, but not if they are present in patients. To determine this, the presence of T cell response against the candidate antigens by patient blood-derived peripheral blood mononuclear cells (PBMC) is assessed by ELISPOT assays upon stimulation with the peptides. This assay detects and quantifies cytokine release (in this case, IFNγ and IL-5) from specific activated T cells.
(§4) Data were obtained from blood samples (25 ml) from 44 PD patients and 24 age-matched controls. The experiments were conducted blindly. PBMCs from these samples were isolated and exposed to pools comprising the 122 candidate class I and class II antigens and phosphorylated S129 epitopes generated in Subaim 1. For the PBMCs responsive to the pooled peptides, the response was then deconvoluted to identify individual epitopes.
(§5) PMBC fractions are recovered by standard methods with Ficoll gradient and T cells expansion (Oseroff et al., 2010). The methods for the analysis of T cell reactions and measurement of cytokines production using the enzyme-linked immunosorbent spot (ELISPOT) assay are published in analogous experiments to discover antigens in multiple sclerosis (Lolli et al., 2013) and in hay fever allergens (Oseroff et al., 2010). T cell responses are determined by measuring IFNγ and IL-5 release by ELISPOT. Statistical analysis of differences between populations is expected to be non-parametric and analyzed with the U-Mann-Whitney test. If there were a normal distribution of response, which is a priori unlikely as some patients have no T cell response, with an SD=1, 8 patients per group would be required to provide a p>90% that the study detect a >2 fold difference at a two-sided 0.05 significance level.

[2] = tested on: peripheral blood mononuclear cells (PBMC), T cells; test: ELISpot assay, gamma-interferon release (SFC) after stimulation with a-synuclein epitope pools; format: cell-based, human; details: for Pool +: IFNg, Pool Stimulated, number of donors with a positive response, Donors tested 1
Description: as §1, §2, §3, §4, §5

[3] = Patients Summary, PD patients, of donors tested (peptide)
[4] = Patients Summary, PD patients, single peptide
[5] = number of donors positive to the single peptide, second 'Pool Stimulated' section (from r296), 12 donors tested
[6] = peptide + / donors tested (peptide), second 'Pool Stimulated' section (from r296), 12 donors tested
[7] = single peptide, second 'Pool Stimulated' section (from r296), 12 donors tested
[8] = Patients Summary, Phospho pool peptides
[9] = Patients Summary, Phospho pool peptides, 10 donors tested
[10] = peptides of pool 'Poshpho', 8 donors tested
[11] = peptides of pool 'Poshpho', 8 donors tested, number of donors positive

Row | Substance | IL-g Peptide + (donors positive to the peptide) [1, 3] | IL-g Response Frequency [1, 4] | IL-g Total SFC [1, 4] | IL-g Peptide + [1, 5] | IL-g Response Frequency [1, 6] | IL-g Total SFC [1, 7] | Pool + [2] | IFNg Peptide + (donors positive to the peptide) [2, 3] | IFNg Response Frequency [2, 4] | IFNg Total SFC [2, 4] | IFNg Peptide + [2, 5] | IFNg Response Frequency [2, 6] | IFNg Total SFC [2, 7] | IL-g Avg SFC [1, 7] | IFNg Avg SFC [2, 4] | also measured
1 | 3521.0068 (GVAEAPGKTK; listed as Homo sapiens) | 0 | 0% | 0 SFC | 0 | 0% | 0 SFC | 0 | 0 | 0% | 0 SFC | 0 | 0% | 0 SFC |  |  | 
2 | 3521.0054 (MPVDPDNEAY; listed as Homo sapiens) | 0 | 0% | 0 SFC | 1 | 50% | 58 SFC | 0 | 0 | 0% | 0 SFC | 0 | 0% |  | 58 SFC |  | 
3 | 3521.0008 (IAAATGFVK; listed as Homo sapiens) | 1 | 25% | 177 SFC | 0 | 0% | 0 SFC | 0 | 0 | 0% | 0 SFC | 0 | 0% | 0 SFC |  |  | IL-g Avg SFC [1, 4]: 177 SFC
4 | 3521.0035 (SIAAATGFVK; listed as Homo sapiens) | 1 | 25% | 1898 SFC | 1 | 50% | 536 SFC | 1 | 1 | 25% | 1946 SFC | 0 | 0% | 0 SFC | 536 SFC | 1946 SFC | IL-g Avg SFC [1, 4]: 1898 SFC
5 | 3521.0011 (QVTNVGGAV; listed as Homo sapiens) | 0 | 0% | 0 SFC | 0 | 0% | 0 SFC | 0 | 0 | 0% | 0 SFC | 0 | 0% | 0 SFC |  |  | 
6 | 3521.0032 (GAVVTGVTAV; listed as Homo sapiens) | 0 | 0% | 0 SFC | 0 | 0% | 0 SFC | 1 | 0 | 0% | 0 SFC | 0 | 0% | 0 SFC |  |  | 
7 | 3521.0021 (PGKTKEGVL; listed as Homo sapiens) | 0 | 0% | 0 SFC | 0 | 0% | 0 SFC | 0 | 1 | 13% | 36 SFC | 0 | 0% | 0 SFC |  | 36 SFC | 
8 | 3521.0013 (VTNVGGAVV; listed as Homo sapiens) | 0 | 0% | 0 SFC | 0 | 0% | 0 SFC | 0 | 1 | 50% | 209 SFC | 0 | 0% | 0 SFC |  | 209 SFC | 
9 | 3521.0018 (MPVDPDNEA; listed as Homo sapiens) | 0 | 0% | 0 SFC | 0 | 0% | 0 SFC | 0 | 0 | 0% | 0 SFC | 0 | 0% |  |  |  | 
10 | 3521.0079 (KGVVHGVATVAEKTK; listed as Homo sapiens) | 0 | 0% | 0 SFC | 1 | 50% | 284 SFC | 1 | 0 | 0% | 0 SFC | 0 | 0% | 0 SFC | 284 SFC |  | 
11 | 3521.0065 (FVKKDQLGK; listed as Homo sapiens) | 0 | 0% | 0 SFC | 0 | 0% | 0 SFC | 0 | 0 | 0% | 0 SFC | 0 | 0% | 0 SFC |  |  | 
12 | 3521.0075 (KQGVAEAPGKTKEGV; listed as Homo sapiens) | 1 | 13% | 58 SFC | 1 | 50% | 147 SFC | 1 | 3 | 38% | 209 SFC | 0 | 0% | 0 SFC | 147 SFC | 70 SFC | IL-g Avg SFC [1, 4]: 58 SFC
13 | 3521.0063 (GVVHGVTTV; listed as Homo sapiens) | 0 | 0% | 0 SFC | 0 | 0% | 0 SFC | 1 | 1 | 50% | 143 SFC | 0 | 0% | 0 SFC |  | 143 SFC | 
14 | 3521.0058 (SEEGYQDYEP; listed as Homo sapiens) | 0 | 0% | 0 SFC | 1 | 50% | 58 SFC | 0 | 0 | 0% | 0 SFC | 0 | 0% |  | 58 SFC |  | IL-g Avg SFC [1, 8]: 73 SFC; IL-g Response Frequency [1, 8]: 10%; IL-g Total SFC [1, 8]: 73 SFC; IL-g Peptide + (donors positive to the peptide) [1, 9]: 1; IL-g Response Frequency [1, 10]: 0%; IL-g Total SFC [1, 10]: 0 SFC; IL-g Peptide + [1, 11]: 0; Pool + ([2]; pool 'Phospho' (phosphorylated peptides)): 1; IFNg Avg SFC [2, 8]: 107 SFC; IFNg Response Frequency [2, 8]: 20%; IFNg Total SFC [2, 8]: 213 SFC; IFNg Peptide + (donors positive to the peptide) [2, 9]: 1; IFNg Avg SFC [2, 10]: 26.7 SFC; IFNg Response Frequency [2, 10]: 13%; IFNg Total SFC [2, 10]: 26.7 SFC; IFNg Peptide + [2, 11]: 1
